For assay [1], the system named is C57/B16 mice with MK-801 injection. Kind of assay: Hot plate test in MK-801 mouse model of schizophrenia. It counts as in vivo. The note with it: mice given MK-801 0.2 mg/kg i.p.; listed as RS-D7. The text has this:
(§1) Taking advantage of wild-type (WT, healthy) mouse and pharmacologic animal models of schizophrenia, such as MK-801 and methamphetamine mouse model of schizophrenia, as the well-established animal models of schizophrenia, we investigate the therapeutic potential of RS-D7, a DAO inhibitor, on the alleviation of schizophrenia-related negative and cognitive deficits. A serial of behavioral tasks has been selected and conducted for mimicking the cognitive (e.g., prepulse inhibition) and negative symptoms (e.g., sucrose preference test and hot plate test) of schizophrenia in healthy control mice or pharmacological mouse model of schizophrenia (Lai, W. S et al., Current Pharmaceutical Design, 2014, 20(32), 5139-50). The pharmacological animal model of schizophrenia is due in part to similarities in clinical presentation and response to treatment. These behavioral tasks have been evaluated with varying degrees of test validities for assessing schizophrenia-relevant behavioral deficits in mice. Different batches of male adult C57/B16 mice were used and the details of different behavioral tasks were described elsewhere.
(§2) MK-801 is a non-competitive NMDA receptor antagonist. An injection and chronic injections of MK-801 provide a potential animal model to mimic both the negative and cognitive symptoms of schizophrenia. […]
(In general: In hot-plate and tail-flick tests a longer latency is read as antinociception.)

For assay [2] the test system is unchanged. As to the kind of experiment: Prepulse inhibition in MK-801 mouse model of schizophrenia. It counts as in vivo. The note with it: mice given MK-801 0.2 mg/kg i.p., 40 mg/kg RS-D7.
Source text: as §1, §2

The next assay concerns the target porcine kidney DAAO (Sus scrofa (Pig), UniProt P00371). Kind of assay: DAAO enzymatic assay. In kind it is biochemical. How it is done: The DAAO activity was measured by using substrate D-alanine reaction produced hydrogen peroxide (H2O2) to further react with 3-(4-hydroxyphenyl) propionic acid (HPPA). The HPPA were oxidized by H2O2 and peroxidase to become the fluorogenic dimer which was measured to represent the activity of DAAO. The substrate of DAAO was prepared in 50 mM D-alanine (dissolved in 0.2 M Tris-HCl buffer, pH 8.3). […] A 10 ul of D-alanine and drug mixture was incubated with 220 ul of Reaction Master Mix in black 96 well plate at 37° C. for 5 min. The Reaction Master Mix contained 110 ul of 5 U/mL porcine kidney DAAO (Sigma-Aldrich, USA) solution (dissolved with 0.2 M Tris-HCl buffer, pH 8.3), 1.1 mL of 15 U/mL peroxidase solution (dissolved with 0.2 M Tris-HCl buffer, pH 8.3), 1.1 mL of 20 mM HPPA solution (dissolved with 0.2 M Tris-HCl buffer, pH 8.3), and 2.2 ml of 2 M Tris-HCl buffer (pH 8.3) for 110 reaction assays.
The higher is the DAAO enzymatic activity, the higher is the fluorescence intensity. The fluorometric inhibition indicator (Fi) was obtained from the following equation: Fi=(Fs−FDrug)/(FDMSO). Where the fluorescent drug blank (FDrug) were measured in the drug mixture solution (using 0.2 M Tris HCl buffer, pH 8.3, without D-alanine). A DMSO blank (FDMSO) was measured under a 100% DMSO solution. Although, in the assay for D-amino acid oxidase, FAD was generally included in the reaction mixture because this co-factor is easily dissociated from the holoenzyme, the present method was performed without FAD. […] The IC50 value was calculated by GraphPad Prism, version 5 software (GraphPad Software, Inc., La Jolla, Calif.) (GraphPad Prism 5, GraphPad software Inc: California, USA) through nonlinear regression model.

The subject of assay [3] is ICR mice with methamphetamine injection. As to the kind of experiment: Prepulse inhibition in methamphetamine mouse model of schizophrenia. It counts as in vivo. The following applies: ICR mice with methamphetamine 3 mg/kg i.p., 20 mg/kg i.p., especially 74 dB prepulse, vs DMSO and CBIO controls; listed as RS-D7. An excerpt: Methamphetamine is a potent psychostimulant that increases the amount of extracellular dopamine in the brain. Methamphetamine (or amphetamine)-induced psychosis model has been well-established and useful for schizophrenia in laboratory animals.

The test system of assay [4] is WT mice. As to the kind of experiment: Prepulse inhibition (PPI) in WT mouse model. In kind it is in vivo. The note with it: 20 mg/kg i.p., 78 dB prepulse, vs saline controls, listed as RS-D7.
Source text: as §1
To assess schizophrenia-like cognitive function in mice, prepulse inhibition (PPI) was used to evaluate sensorimotor gating functions in mice after RS-D7 injection. […]

For assay [5], the system named is C57/B16 mice with MK-801 injection. As to the kind of experiment: Sucrose preference test in MK-801 mouse model of schizophrenia. In kind it is in vivo. The note with it: mice given MK-801 0.2 mg/kg i.p., 20 mg/kg RS-D7.
Source text: as §1, §2

Assay [6] has as its system WT mice. Kind of assay: Hot plate test in WT mouse model. It counts as in vivo. The following applies: 55° C. hot plate, 40 mg/kg i.p., vs WT controls, listed as RS-D7.
Source text: as §1
For schizophrenia-like negative symptoms in mice, hot plate test was used to assess basic pain and nociception function in mice. […]

Setting [7] is: porcine kidney DAAO, D-alanine substrate, HPPA fluorescence, pH 8.3, 37° C.

Values joined by “and” are separate entries in the source; they are usually repeats but may differ in a detail not shown here. Equal values may be shown once. “Also recorded” adds a separate entry of the source. Where a name gives a salt, the structure may show the parent alone. Read-outs that look alike come from different tables or passages of the source.

Sequence of porcine kidney DAAO (P00371 whole entry): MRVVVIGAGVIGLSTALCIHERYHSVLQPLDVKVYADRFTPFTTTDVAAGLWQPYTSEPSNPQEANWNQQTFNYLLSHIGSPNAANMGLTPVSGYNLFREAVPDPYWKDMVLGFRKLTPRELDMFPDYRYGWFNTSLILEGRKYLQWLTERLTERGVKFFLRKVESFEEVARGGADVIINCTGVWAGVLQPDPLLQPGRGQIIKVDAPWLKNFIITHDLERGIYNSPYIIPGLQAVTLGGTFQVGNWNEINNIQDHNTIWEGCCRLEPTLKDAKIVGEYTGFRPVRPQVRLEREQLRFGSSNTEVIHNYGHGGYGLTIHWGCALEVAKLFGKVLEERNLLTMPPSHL

By IC50 is commonly meant the midpoint of a concentration-inhibition curve. Turning to `COc1c(C)cnc(C[S+]([O-])c2nc3cc(O)ccc3[nH]2)c1C` (stereo not shown) [5-O-Desmethyl-Omeprazole], in assay [1], the “latency in hot plate test” value is listed as “alleviates; also recorded: alleviated the MK-801-induced alteration” and the “reaction numbers in hot plate test” value was “alleviates; also recorded: alleviated the MK-801-induced alteration”. Moreover, in assay [2], the acoustic prepulse inhibition entry is on record as “alleviates; also recorded: significantly alleviated MK-801 induced PPI deficit”. Further, on porcine kidney DAAO (setting [7]), the half-inhibitory concentration (IC50) is 1.19 µM and 1 to 10 µM. For the same compound, in assay [3], the “prepulse inhibition (sensorimotor gating function)” value was “alleviates sensorimotor gating deficit; also recorded: induce a greater PPI”. Also, the “prepulse inhibition (sensorimotor gating function)” value in the assay on WT mice [4] is recorded as “increases; also recorded: induced a greater PPI”. In addition, in assay [5], the “sucrose uptake in sucrose preference test (anhedonia)” value is recorded as “alleviates; also recorded: rescued the MK-801 induced deficit”. Further, in the assay on WT mice [6], the “latency of mouse first reaction (jump) on hot plate” value is “increases nociception function; also recorded: accelerated” and the “numbers of jump on hot plate” value is “increases nociception function; also recorded: increased”.

`CCN(CC)Cc1cc(Nc2ccnc3cc(Cl)ccc23)ccc1O` [Amodiaquin, reference compound] displayed an IC50 on porcine kidney DAAO (setting [7]) of 97.6 µM.

Take `CNCC[C@H](Oc1cccc2ccccc12)c1cccs1` [Duloxetine, reference compound]: the IC50 against porcine kidney DAAO amounted to 5.47 µM.

At porcine kidney DAAO (setting [7]), `COc1ccc2nc([S@@+]([O-])Cc3ncc(C)c(OC)c3C)[nH]c2c1` [Esomeprazole, reference compound] returned an IC50 of 106 µM.

Take `Clc1ccc2c(c1)N=C(N1CCNCC1)c1ccccc1N2` [N-Desmethylclozapine]: the IC50 at porcine kidney DAAO (setting [7]) was 102 µM.

At porcine kidney DAAO (setting [7]), `COc1ccc(OC[C@@H]2CNCC[C@H]2c2ccc(F)cc2)cc1O` [PM-BRL 36583A, (−)-trans 4-(4-Fluorophenyl)-3-(3-hydroxy-4-methoxyphenoxymethyl) piperidine] had an IC50 of 3.67 µM. Compared with the last compound, the IC50 is about 28-fold lower.

As for `COc1cc(OC[C@@H]2CNCC[C@H]2c2ccc(F)cc2)ccc1O` [PM-BRL 36610A, (−)trans 4-(4-fluorophenyl)-3-(4-hydroxy-3-methoxyphenoxymethyl)piperidine-hydrochloride], the IC50 on porcine kidney DAAO (setting [7]) came to 3.45 µM.

Consider `O=C([O-])c1ccccc1.[Na+]` [sodium benzoate, reference compound], for which the IC50 against porcine kidney DAAO was around 71.7 µM.

Values taken from USRE49340E1, “Use of known compounds as D-amino acid oxidase inhibitors” (National Taiwan University, priority 2014, dated 2022).
